Series [1] addresses T1, Transient receptor potential cation channel subfamily V member 1 (Homo sapiens, UniProt Q8NER1). The series is described as follows: Inhibition of pH-induced calcium uptake by transient receptor potential vanilloid type 1 expressed in CHO cells. Type of series: functional, cell-based.
The target of series [2] is T1, Transient receptor potential cation channel subfamily V member 1. As to the kind of experiment: Inhibition of capsaicin-induced calcium uptake by transient receptor potential vanilloid type 1 expressed in CHO cells. It is filed as functional, cell-based.
Series [3] can be described thus: Area under concentration time curve from time 0 to infinity was determined in rat after oral administration of 5 mg/kg. It is filed as ADME, organism-based. Set-up: time infinity, dose 5 mg/kg, route oral. The note with it: in vivo.
The nature of series [4]: Peak plasma concentration in rat after oral administration of 5 mg/kg. It is filed as ADME, organism-based. Set-up: dose 5 mg/kg, route oral.
The nature of series [5]: Maximum time required to attain Cmax in rat after oral administration of 5 mg/kg. Set-up: dose 5 mg/kg, route oral. The note with it: in vivo. It is filed as ADME, organism-based.
A short description of series [6]: Half life in rat after intravenous administration of 2 mg/kg. Set-up: dose 2 mg/kg, route intravenous. The note with it: in vivo. Type of series: ADME, organism-based.
Series [7] in a line: Oral bioavailability in rat (dose 5 mg/kg). Type of series: ADME, organism-based. The note with it: in vivo.
Series [8] in a line: Area under concentration time curve from time 0 to infinity was determined in rat after intravenous administration of 2 mg/kg. Type of series: ADME, organism-based. Set-up: time infinity, dose 2 mg/kg, route intravenous. As to conditions: in vivo.
A short description of series [9]: Steady state volume of distribution in rat after intravenous administration of 2 mg/kg. Type of series: ADME, organism-based. Set-up: dose 2 mg/kg, route intravenous. The note with it: in vivo, read-out: Vss.
The nature of series [10]: Plasma clearance in rat after intravenous administration of 2 mg/kg. Type of series: ADME, organism-based. Set-up: dose 2 mg/kg, route intravenous.
Series [11] has as its target T1, Transient receptor potential cation channel subfamily V member 1. As to the kind of experiment: Agonistic activity for transient receptor potential vanilloid type 1 expressed in CHO cells. It is filed as functional, cell-based.
A short description of series [12]: Half life in rat after intravenous administration of 3 mg/kg. As to conditions: in vivo. Set-up: dose 3 mg/kg, route intravenous. Type of series: ADME, organism-based.
A short description of series [13]: Plasma clearance in rat after intravenous administration of 3 mg/kg. Type of series: ADME, organism-based. Set-up: dose 3 mg/kg, route intravenous.
A short description of series [14]: Area under concentration time curve from time 0 to infinity was determined in rat after intravenous administration of 3 mg/kg. It is filed as ADME, organism-based. Set-up: time infinity, dose 3 mg/kg, route intravenous. As to conditions: in vivo.
Series [15] is described as follows: Steady state volume of distribution in rat after intravenous administration of 3 mg/kg. Type of series: ADME, organism-based. Set-up: dose 3 mg/kg, route intravenous. As to conditions: in vivo, read-out: Vss.

The structures appear in SMILES notation.

Broadly, the IC50 is the midpoint of a concentration-inhibition curve. The AUC is the area under the concentration-time curve, a measure of exposure. Read a low AUC as low exposure. By Cmax is commonly meant the maximum level reached in the sampled fluid or tissue. What is called Tmax is the time at which the peak concentration occurs. One may read the half-life as how long it takes for the measured level to halve. A high value points to slow decline. One may read the AUC(0-inf) as total exposure, with the tail of the curve extrapolated. Read a high AUC(0-inf) as more exposure. What is called bioavailability is dose-corrected exposure relative to a reference, in per cent. High values mean much systemic uptake, low ones little systemic uptake. Usually clearance stands for a measure of how efficiently the substance is removed, as volume per time. One may read the EC50 as the concentration at which the effect is half-maximal. Higher therefore signals lower potency in that assay.

T1 sequence (Q8NER1 whole entry): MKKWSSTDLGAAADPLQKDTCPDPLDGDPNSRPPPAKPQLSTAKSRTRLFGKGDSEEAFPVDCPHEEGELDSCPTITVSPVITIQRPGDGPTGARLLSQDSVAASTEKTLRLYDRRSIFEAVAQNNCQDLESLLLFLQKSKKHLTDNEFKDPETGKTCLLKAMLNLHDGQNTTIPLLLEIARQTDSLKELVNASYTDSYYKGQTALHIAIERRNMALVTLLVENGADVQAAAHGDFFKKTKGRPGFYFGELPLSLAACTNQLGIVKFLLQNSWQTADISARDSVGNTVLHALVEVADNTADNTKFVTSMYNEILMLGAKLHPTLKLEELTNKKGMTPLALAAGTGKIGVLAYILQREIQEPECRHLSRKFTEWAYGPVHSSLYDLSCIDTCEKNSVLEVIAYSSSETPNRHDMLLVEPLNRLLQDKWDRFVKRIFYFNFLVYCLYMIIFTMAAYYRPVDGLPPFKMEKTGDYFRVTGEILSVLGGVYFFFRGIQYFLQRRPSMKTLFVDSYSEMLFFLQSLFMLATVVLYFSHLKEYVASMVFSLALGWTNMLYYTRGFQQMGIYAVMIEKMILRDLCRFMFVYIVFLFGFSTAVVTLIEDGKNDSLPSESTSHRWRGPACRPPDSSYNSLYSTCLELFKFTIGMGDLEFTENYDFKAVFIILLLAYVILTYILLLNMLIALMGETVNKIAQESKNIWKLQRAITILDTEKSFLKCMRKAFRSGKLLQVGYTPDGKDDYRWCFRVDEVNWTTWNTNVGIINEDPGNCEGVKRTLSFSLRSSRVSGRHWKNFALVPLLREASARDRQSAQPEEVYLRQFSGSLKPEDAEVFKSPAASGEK

With `CC(C)(C)c1ccc(/C=C/C(=O)Nc2ccc3c(c2)CCCC3)cc1`, the IC50 in series [1] is 960 nM; in series [2] it was 61 nM.

`O=C(/C=C/c1ccc(C(F)(F)F)nc1N1CCCCC1)Nc1ccc2cccnc2c1`: the AUC amounted to 2400 ng·h/mL in series [3] and 2100 ng·h/mL in [8]. Further, the Cmax in series [4] stood at 320 ng/mL. Further, the IC50 in series [1] is 1 nM; in series [2], 0.42 nM. Moreover, in [5], the Tmax was found to be 2 h. Moreover, the half-life in series [6] was 2.9 h. Also, in [7], the F was 17%. Further, the Vd in [9] was 2.8 L/kg. This compound also had a CL in [10] (in vivo) of 13 mL/min/kg.

Consider `O=C(/C=C/c1ccc(C(F)(F)F)nc1N1CCOCC1)Nc1ccc2cccnc2c1`, for which the AUC(0-inf) in series [3] was determined as 2600 ng·h/mL. Also, the Cmax in series [4] came to 540 ng/mL. Moreover, the IC50 in [1] was found to be 1.3 nM; in series [2], 1.9 nM. For the same compound, the Tmax in series [5] is 1.5 h. The half-life in [6] was 0.9 h. In [7], this compound showed a bioavailability of 39%. The compound further returned an AUC in [8] of 2300 ng·h/mL. For the same compound, the Vd in series [9] worked out at 1.1 L/kg. In addition, the clearance in series [10] (plasma) is 15 mL/min/kg.

As to `CC(C)(C)c1ccc(/C=C/C(=O)Nc2ccc3c(c2)NC(=O)CO3)cc1`, the IC50 in series [1] was > 4000 nM; in series [2] it was 6.5 nM.

On to `CC(C)(C)c1ccc(/C=C/C(=O)Nc2ccc3c(c2)OCC(=O)N3)cc1`, for which the IC50 was > 4000 nM in series [1] and 270 nM in [2].

In the case of `CC(C)(C)c1ccc(/C(=C/C(=O)Nc2ccc3c(c2)OCCO3)c2ccncc2)cc1`, the IC50 was 660 nM in [1] and 44 nM in series [2].

Turning to `CC(C)(C)c1ccc(C2CC2C(=O)Nc2ccc3c(c2)OCCO3)cc1` (stereo not drawn), the IC50 in [1] was > 4000 nM; in series [2], 1800 nM.

In the case of `Cc1ccc(/C=C/C(=O)Nc2ccc3c(c2)OCCO3)cc1`, the results for the IC50 in series [1] and in series [2] were 1100 nM and 210 nM, respectively.

Consider `CCc1ccc(/C=C/C(=O)Nc2ccc3c(c2)OCCO3)cc1`, for which the IC50 came to 220 nM in series [1] and 170 nM in series [2].

`CC(C)(C)c1ccc(/C(=C/C(=O)Nc2ccc3c(c2)OCCO3)CCC(=O)O)cc1`: the IC50 in series [1] and in [2] was > 4000 nM in each case.

`CC(C)(C)c1ccc(CCC(=O)Nc2ccc3c(c2)OCCO3)cc1`: the figures for the IC50 in series [1] and in series [2] were 660 nM and 150 nM, respectively.

Consider `CC(C)C/C(=C\C(=O)Nc1ccc2c(c1)OCCO2)c1ccc(C(C)(C)C)cc1`, for which the figures for the IC50 in series [1] and in series [2] were 94 nM and 16 nM, respectively.

Turning to `O=C(/C=C/c1ccccc1)Nc1ccc2c(c1)OCCO2`, the IC50 in series [1] and in series [2] was > 4000 nM each time.

Regarding `CC(C)(C)c1ccc(/C(=C/C(=O)Nc2ccc3c(c2)OCCO3)c2ccccc2)cc1`, the values for the IC50 in [1] and in series [2] were 120 nM and 20 nM, respectively.

For `CC/C(=C\c1ccc(C(C)(C)C)cc1)C(=O)Nc1ccc2c(c1)OCCO2`, the IC50 in [1] is 800 nM; in [2] it was 210 nM.

For the compound `COc1ccccc1NC(=O)/C=C/c1ccc(C(C)(C)C)cc1`, the IC50 in [1] is > 4000 nM; in series [2], 550 nM.

On to `CC(C)(C)c1ccc(/C(=C/C(=O)Nc2ccc3c(c2)OCCO3)c2cccnc2)cc1`, for which the IC50 turned out to be 510 nM in series [1] and 78 nM in [2].

On to `CN(C)CCC/C(=C\C(=O)Nc1ccc2c(c1)OCCO2)c1ccc(C(C)(C)C)cc1`, for which the IC50 is > 4000 nM in series [1] and 3900 nM in series [2].

Take `COc1cccc(NC(=O)/C=C/c2ccc(C(C)(C)C)cc2)c1`: the IC50 in series [1] was > 4000 nM; in [2] it was 21 nM.

Turning to `COc1ccc(NC(=O)/C=C/c2ccc(C(C)(C)C)cc2)cc1`, the IC50 was > 4000 nM in series [1] and 140 nM in series [2].

Consider `O=C(/C=C/c1ccc(C(F)(F)F)nc1N1CCCCC1)Nc1ccc2c(c1)OCCO2`, for which the IC50 in series [1] was determined as 54 nM; in series [2] it was 27 nM.

For the compound `CC(C)(C)c1ccc(/C=C/C(=O)Nc2ccc3c(c2)NCCC3)cc1`, the results for the IC50 in series [1] and in series [2] were 160 nM and 36 nM, respectively.

For `CC(C)(C)c1ccc(/C(=C/C(=O)Nc2ccc3c(c2)OCCO3)Cc2ccccc2)cc1`, the IC50 in series [1] was found to be 110 nM; in series [2], 14 nM.

In the case of `COc1ccc(NC(=O)/C=C/c2ccc(C(C)(C)C)cc2)cc1OC`, the 50% inhibitory concentration (IC50) in series [1] is > 4000 nM; in series [2], 170 nM.

With `CC(C)(C)c1ccc(/C=C/C(=S)Nc2ccc3c(c2)OCCO3)cc1`, the IC50 in series [1] was 1400 nM; in series [2], 280 nM.

`CN(C(=O)/C=C/c1ccc(C(C)(C)C)cc1)c1ccc2c(c1)OCCO2`: the IC50 in [1] and in series [2] was > 4000 nM throughout.

As to `CC(C)(C)c1ccc(/C=C/CNc2ccc3c(c2)OCCO3)cc1`, the IC50 in series [1] and in series [2] was > 4000 nM throughout.

Take `CC(C)(C)c1ccc(/C=C/C(=O)Nc2ccc3c(c2)OCO3)cc1`: the IC50 was > 4000 nM in [1] and 570 nM in series [2].

Take `CC(C)(C)c1ccc(/C=C/C(=O)Nc2ccc3c(c2)NCCO3)cc1`: the IC50 is > 4000 nM in series [1] and 110 nM in series [2].

Consider `CC(C)(C)c1ccc(/C=C/C(=O)Nc2ccc3c(c2)OCCN3)cc1`, for which the IC50 in [1] was determined as 57 nM; in series [2] it was 16 nM.

As to `CC(C)(C)c1ccc(/C(=C/C(=O)Nc2ccc3c(c2)OCCO3)c2ccc(C(F)(F)F)cc2)cc1`, the IC50 in [1] turned out to be 180 nM; in series [2] it was 25 nM.

In the case of `COc1cc(NC(=O)/C=C/c2ccc(C(C)(C)C)cc2)ccc1O`, the response in series [11] was half-maximal at 440 nM (EC50).

Consider `CC(C)(C)c1ccc(/C=C(/C(=O)Nc2ccc3c(c2)OCCO3)c2ccccc2)cc1`, for which the IC50 in [1] and in series [2] was > 4000 nM in each case.

On to `CCOC(=O)CC/C(=C\C(=O)Nc1ccc2c(c1)OCCO2)c1ccc(C(C)(C)C)cc1`, for which the IC50 worked out at 290 nM in series [1] and 36 nM in series [2].

On to `CC(C)(C)c1ccc(/C=C/C(=O)Nc2ccc3c(c2)OCCO3)cc1` (stereo in doubt; 1), for which the AUC(0-inf) in series [3] worked out at 24 ng·h/mL. In addition, the half-life in series [12] is 1.1 h. Moreover, in series [4], the peak level (Cmax) was 25 ng/mL. The IC50 turned out to be 150 nM in [1] and 17 nM in [2]. This compound showed a clearance in series [13] of 73.3 mL/min/kg. Besides, the Tmax in series [5] came out at 0.5 h. In [7], this compound gave a bioavailability of 3%. This compound also yielded an AUC in series [14] of 680 ng·h/mL. Further, the Vd in series [15] stood at 2.1 L/kg.

The values above are taken from ChEMBL document CHEMBL1139498, “Discovery of potent, orally available vanilloid receptor-1 antagonists. Structure-activity relationship of N-aryl cinnamides” (J Med Chem, 2005).
